# Test results: US8558002B2, “Sulfoximines as kinase inhibitors” (Allergan, Inc., priority 2006, dated 2013)
# How the values were obtained:
# [1] = biological target: T1, PDGFRβ (Homo sapiens, UniProt P09619); assay: PDGFRβ Kinase Assay (poly-Glu-Tyr ELISA); type: biochemical; conditions: purified cytoplasmic domain PDGFR-b protein, 36 μM ATP
# T1 construct: 200-300 ng purified cytoplasmic domain PDGFR-b protein (Millipore); purchased Millipore
# Description: Biochemical PDGFRβ kinase assays were performed in 96 well microtiter plates that were coated overnight with 75 μg of poly-Glu-Tyr (4:1) in 10 mM Phosphate Buffered Saline (PBS), pH 7.4. The coated plates were washed with 2 mls per well PBS+0.05% Tween-20 (PBS-T), blocked by incubation with PBS containing 1% BSA, then washed with 2 mls per well PBS-T prior to starting the reaction. Reactions were carried out in 100 μL reaction volumes containing 36 μM ATP in kinase buffer (50 mM Hepes buffer pH 7.4, 20 mM MgCl2, 0.1 mM MnCl2 and 0.2 mM Na3VO4). Test compounds were reconstituted in 100% DMSO and added to the reaction to give a final DMSO concentration of 5%. Reactions were initiated by the addition 20 ul per well of kinase buffer containing 200-300 ng purified cytoplasmic domain PDGFR-b protein (Millipore). Following a 60 minute incubation at 30° C., the reactions were washed 2 mls per well PBS-T. […] of a monoclonal anti-phosphotyrosine antibody-peroxidase conjugate diluted 1:10,000 in PBS-T was added to the wells for 30 minutes. Following a 2 mls per well wash with PBS-Tween-20, 100 μl of O-Phenylenediamine Dihydrochloride in phosphate-citrate buffer, containing urea hydrogen peroxide, was added to the wells for 7-10 minutes as a colorimetric substrate for the peroxidase. The reaction was terminated by the addition of 100 μl of 2.5N H2SO4 to each well and read using a microplate ELISA reader set at 492 nm. IC50 values for compound inhibition were calculated directly from graphs of optical density (arbitrary units) versus compound concentration following subtraction of blank values.
# [2] = biological target: T2, VEGFR2 (Homo sapiens, UniProt P35968); assay: VEGFR2 Kinase Assay (biochemical KDR kinase, poly-Glu-Tyr ELISA); design: 200-300 ng purified cytoplasmic domain KDR protein; purchased BPS Bioscience; conditions: purified cytoplasmic domain KDR protein, 2.7 μM ATP
# Description: Biochemical KDR kinase assays were performed in 96 well microtiter plates that were coated overnight with 75 μg/well of poly-Glu-Tyr (4:1) in 10 mM Phosphate Buffered Saline (PBS), pH 7.4. The coated plates were washed with 2 mls per well PBS+0.05% Tween-20 (PBS-T), blocked by incubation with PBS containing 1% BSA, then washed with 2 mls per well PBS-T prior to starting the reaction. Reactions were carried out in […] reaction volumes containing 2.7 μM ATP in kinase buffer (50 mM Hepes buffer pH 7.4, 20 mM MgCl2, 0.1 mM MnCl2 and 0.2 mM Na3VO4). Test compounds were reconstituted in 100% DMSO and added to the reaction to give a final DMSO concentration of 5%. Reactions were initiated by the addition 20 ul per well of kinase buffer containing 200-300 ng purified cytoplasmic domain KDR protein (BPS Bioscience, San Diego, Calif.). Following a 15 minute incubation at 30° C., the reactions were washed 2 mls per well PBS-T. 100 μl of a monoclonal anti-phosphotyrosine antibody-peroxidase conjugate diluted 1:10,000 in PBS-T was added to the wells for 30 minutes. Following a 2 mls per well wash with PBS-Tween-20, 100 μl of O-Phenylenediamine Dihydrochloride in phosphate-citrate buffer, containing urea hydrogen peroxide, was added to the wells for 7-10 minutes as a colorimetric substrate for the peroxidase. The reaction was terminated by the addition of 100 μl of 2.5NH2SO4 to each well and read using a microplate ELISA reader set at 492 nm. IC50 values for compound inhibition were calculated directly from graphs of optical density (arbitrary units) versus compound concentration following subtraction of blank values.
# Target sequence in this assay (P35968 786-1356 limits assumed): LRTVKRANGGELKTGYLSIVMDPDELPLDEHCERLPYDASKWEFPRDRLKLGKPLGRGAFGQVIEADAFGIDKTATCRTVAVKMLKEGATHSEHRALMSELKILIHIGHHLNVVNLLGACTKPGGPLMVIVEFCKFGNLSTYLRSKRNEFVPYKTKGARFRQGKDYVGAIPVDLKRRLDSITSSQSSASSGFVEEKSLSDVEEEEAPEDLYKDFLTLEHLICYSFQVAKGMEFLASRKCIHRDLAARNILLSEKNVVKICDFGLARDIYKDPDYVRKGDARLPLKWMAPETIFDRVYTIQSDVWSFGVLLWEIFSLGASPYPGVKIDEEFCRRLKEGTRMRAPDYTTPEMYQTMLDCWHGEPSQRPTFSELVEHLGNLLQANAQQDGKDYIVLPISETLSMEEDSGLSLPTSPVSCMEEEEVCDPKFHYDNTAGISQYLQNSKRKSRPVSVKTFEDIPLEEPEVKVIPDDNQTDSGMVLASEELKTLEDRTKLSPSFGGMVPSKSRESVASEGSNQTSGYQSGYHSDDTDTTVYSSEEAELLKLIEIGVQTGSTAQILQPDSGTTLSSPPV
# [3] = biological target: VEGFR1 (Homo sapiens, UniProt P17948); assay: VEGFR1 Kinase; type: biochemical
# [4] = biological target: T2, VEGFR2; assay: VEGFR2 Cellular Assay (FLIPR, VEGF induced increases in intracellular calcium in HUVEC); type: cell-based; design: host or cells: HUVEC; conditions: VEGF165 stimulation (10 ng/mL), Fluo-4
# Description: Automated FLIPR (Fluorometric Imaging Plate Reader) technology was used to screen for inhibitors of VEGF induced increases in intracellular calcium levels in fluorescent dye loaded endothelial cells. HUVEC (human umbilical vein endothelial cells) (Clonetics) were seeded in 384-well fibronectin coated black-walled plates overnight @ 37° C./5% CO2. Cells were loaded with calcium indicator Fluo-4 for 45 minutes at 37° C. Cells were washed 2 times (El×405, Biotek Instruments) to remove extracellular dye. For screening, cells were pre-incubated with test agents for 30 minutes, at a single concentration (10 uM) or at concentrations ranging from 0.0001 to 10.0 uM followed by VEGF165 stimulation (10 ng/mL). Changes in fluorescence at 516 nm were measured simultaneously in all 384 wells using a cooled CCD camera. Data were generated by determining max-min fluorescence levels for unstimulated, stimulated, and drug treated samples. IC50 values for test compounds were calculated from % inhibition of VEGF stimulated responses in the absence of inhibitor.
# Target sequence in this assay (P35968 20-1356): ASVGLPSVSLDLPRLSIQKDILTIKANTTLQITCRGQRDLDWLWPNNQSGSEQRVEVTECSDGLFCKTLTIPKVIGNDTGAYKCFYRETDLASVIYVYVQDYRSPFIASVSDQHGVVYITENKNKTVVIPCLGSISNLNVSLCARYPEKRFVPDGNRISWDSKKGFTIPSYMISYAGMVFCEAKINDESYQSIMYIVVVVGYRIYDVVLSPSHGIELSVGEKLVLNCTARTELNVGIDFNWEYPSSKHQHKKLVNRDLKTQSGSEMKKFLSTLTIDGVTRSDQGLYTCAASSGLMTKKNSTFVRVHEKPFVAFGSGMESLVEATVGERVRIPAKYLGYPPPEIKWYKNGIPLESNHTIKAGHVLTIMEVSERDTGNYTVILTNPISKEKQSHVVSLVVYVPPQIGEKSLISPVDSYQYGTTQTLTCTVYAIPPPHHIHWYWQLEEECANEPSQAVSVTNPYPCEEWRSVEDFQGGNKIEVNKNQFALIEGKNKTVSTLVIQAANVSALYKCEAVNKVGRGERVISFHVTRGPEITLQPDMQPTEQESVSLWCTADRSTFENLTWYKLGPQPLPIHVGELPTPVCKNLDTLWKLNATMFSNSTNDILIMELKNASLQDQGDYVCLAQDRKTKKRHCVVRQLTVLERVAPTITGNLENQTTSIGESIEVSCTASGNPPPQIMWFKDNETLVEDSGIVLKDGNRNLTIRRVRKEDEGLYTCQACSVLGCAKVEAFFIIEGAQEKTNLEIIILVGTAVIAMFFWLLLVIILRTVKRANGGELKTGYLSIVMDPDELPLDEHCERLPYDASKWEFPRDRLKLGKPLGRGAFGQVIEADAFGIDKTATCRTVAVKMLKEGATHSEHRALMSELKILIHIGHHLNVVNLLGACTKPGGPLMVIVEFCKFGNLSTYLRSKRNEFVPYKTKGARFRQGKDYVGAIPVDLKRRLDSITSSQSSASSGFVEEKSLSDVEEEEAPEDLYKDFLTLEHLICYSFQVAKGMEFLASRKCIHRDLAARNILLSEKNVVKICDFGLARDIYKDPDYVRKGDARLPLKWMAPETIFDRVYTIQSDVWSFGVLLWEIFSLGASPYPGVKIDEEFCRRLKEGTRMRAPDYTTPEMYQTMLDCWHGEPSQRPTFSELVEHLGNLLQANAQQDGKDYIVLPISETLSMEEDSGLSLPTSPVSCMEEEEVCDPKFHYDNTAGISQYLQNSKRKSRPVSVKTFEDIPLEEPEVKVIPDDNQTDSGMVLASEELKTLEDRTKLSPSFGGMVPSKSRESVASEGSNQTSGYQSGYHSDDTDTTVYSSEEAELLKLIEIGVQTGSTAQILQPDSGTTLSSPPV
# T1 sequence (P09619 554-1106 limits assumed): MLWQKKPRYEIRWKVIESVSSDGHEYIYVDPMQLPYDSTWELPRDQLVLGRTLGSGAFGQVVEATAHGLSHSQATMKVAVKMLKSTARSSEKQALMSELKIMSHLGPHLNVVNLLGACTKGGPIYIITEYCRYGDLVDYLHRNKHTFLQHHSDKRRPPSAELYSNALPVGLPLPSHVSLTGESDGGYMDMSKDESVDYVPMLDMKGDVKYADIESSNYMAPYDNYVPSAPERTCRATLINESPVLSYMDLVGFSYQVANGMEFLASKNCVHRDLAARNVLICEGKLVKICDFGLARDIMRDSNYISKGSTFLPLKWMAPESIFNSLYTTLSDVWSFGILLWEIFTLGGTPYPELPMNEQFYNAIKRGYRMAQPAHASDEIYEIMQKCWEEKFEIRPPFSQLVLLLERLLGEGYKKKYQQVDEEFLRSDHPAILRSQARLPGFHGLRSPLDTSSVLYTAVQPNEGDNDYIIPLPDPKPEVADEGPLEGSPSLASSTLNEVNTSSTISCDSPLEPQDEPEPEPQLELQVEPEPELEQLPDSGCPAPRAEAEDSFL
# Chain of VEGFR1 (P17948 27-1338, species assumed): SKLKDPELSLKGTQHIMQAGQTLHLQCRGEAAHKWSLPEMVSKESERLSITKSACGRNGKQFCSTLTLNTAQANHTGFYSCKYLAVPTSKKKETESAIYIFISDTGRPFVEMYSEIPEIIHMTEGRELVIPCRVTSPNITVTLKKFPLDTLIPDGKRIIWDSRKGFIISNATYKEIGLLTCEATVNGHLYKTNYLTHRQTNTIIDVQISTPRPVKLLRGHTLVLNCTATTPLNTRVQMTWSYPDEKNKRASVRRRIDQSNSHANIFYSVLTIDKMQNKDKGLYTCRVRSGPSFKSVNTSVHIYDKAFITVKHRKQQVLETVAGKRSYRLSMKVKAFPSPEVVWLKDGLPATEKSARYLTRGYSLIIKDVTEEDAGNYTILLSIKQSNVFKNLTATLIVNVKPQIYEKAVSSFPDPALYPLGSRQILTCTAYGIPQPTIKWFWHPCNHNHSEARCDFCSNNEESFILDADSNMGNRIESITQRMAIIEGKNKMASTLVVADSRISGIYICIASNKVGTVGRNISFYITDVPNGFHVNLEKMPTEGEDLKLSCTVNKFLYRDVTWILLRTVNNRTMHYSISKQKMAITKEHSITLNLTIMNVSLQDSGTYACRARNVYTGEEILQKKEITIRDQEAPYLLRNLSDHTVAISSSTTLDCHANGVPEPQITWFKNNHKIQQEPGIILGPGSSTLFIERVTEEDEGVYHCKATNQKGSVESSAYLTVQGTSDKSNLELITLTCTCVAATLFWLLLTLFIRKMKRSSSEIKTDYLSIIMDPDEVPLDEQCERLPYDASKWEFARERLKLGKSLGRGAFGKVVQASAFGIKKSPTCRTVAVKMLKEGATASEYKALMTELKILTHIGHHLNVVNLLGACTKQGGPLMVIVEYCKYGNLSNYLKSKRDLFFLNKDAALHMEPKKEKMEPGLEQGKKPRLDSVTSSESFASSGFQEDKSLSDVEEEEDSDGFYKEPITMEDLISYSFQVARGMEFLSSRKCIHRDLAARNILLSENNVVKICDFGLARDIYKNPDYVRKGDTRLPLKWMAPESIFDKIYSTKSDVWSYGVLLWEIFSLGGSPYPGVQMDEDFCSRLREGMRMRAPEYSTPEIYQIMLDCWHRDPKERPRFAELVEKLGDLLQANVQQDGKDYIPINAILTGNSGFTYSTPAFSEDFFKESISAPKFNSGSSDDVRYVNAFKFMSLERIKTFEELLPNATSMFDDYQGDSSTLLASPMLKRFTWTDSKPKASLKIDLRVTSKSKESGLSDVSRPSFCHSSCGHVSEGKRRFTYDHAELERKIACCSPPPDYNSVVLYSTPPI
IC50 [1],IC50 [2],IC50 [3],IC50 [4],SMILES
50 nM,11 nM,14 nM,< 1 nM,"COC(=O)CCCCS(=O)(CCCCC(=O)OC)=NC(=O)c1cnc(N)c(C#Cc2cccc(C(=O)Nc3cc(C)ccc3F)c2)c1 [Example 14, Dimethyl 5,5′-[N-({6-amino-5-[(3-{[(2-fluoro-5-methylphenyl)amino]carbonyl}phenyl)ethynyl]pyridin-3-yl}carbonyl)sulfonimidoyl]dipentanoate]"
176 nM,3 nM,10 nM,3 nM,"COC(=O)CCCCS(=O)(CCCCC(=O)OC)=NC(=O)c1cnc(N)c(C#Cc2cccc(NC(=O)c3occc3C)c2)c1 [Example 2, Dimethyl 5,5′-(N-{[6-amino-5-({3-[(3-methyl-2-furoyl)amino]phenyl}ethynyl)pyridin-3-yl]carbonyl}sulfonimidoyl)dipentanoate]"
